In patent US10550105B2 (Ribon Therapeutics Inc., priority 2018, dated 2020):

Target: PARP7 (Homo sapiens (Human), UniProt Q7Z3E1)
Assay: Enzymatic assay for inhibition of PARP7: TR-FRET displacement of biotinylated Probe A from the TIPARP active site
Assay type: binding
Conditions: Table A-1
How it was run: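 Displacement of biotinylated Probe A from TIPARP was measured as the 665/615 nm time-resolved FRET ratio (excitation 320 nm, 90 μs delay) after a further 30 min at 25 °C. Inhibition across compound concentrations was fitted by dose-response regression, with the Hill slope free or fixed at 1 (3-parameter fit).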

Chain of PARP7 (Q7Z3E1 whole entry): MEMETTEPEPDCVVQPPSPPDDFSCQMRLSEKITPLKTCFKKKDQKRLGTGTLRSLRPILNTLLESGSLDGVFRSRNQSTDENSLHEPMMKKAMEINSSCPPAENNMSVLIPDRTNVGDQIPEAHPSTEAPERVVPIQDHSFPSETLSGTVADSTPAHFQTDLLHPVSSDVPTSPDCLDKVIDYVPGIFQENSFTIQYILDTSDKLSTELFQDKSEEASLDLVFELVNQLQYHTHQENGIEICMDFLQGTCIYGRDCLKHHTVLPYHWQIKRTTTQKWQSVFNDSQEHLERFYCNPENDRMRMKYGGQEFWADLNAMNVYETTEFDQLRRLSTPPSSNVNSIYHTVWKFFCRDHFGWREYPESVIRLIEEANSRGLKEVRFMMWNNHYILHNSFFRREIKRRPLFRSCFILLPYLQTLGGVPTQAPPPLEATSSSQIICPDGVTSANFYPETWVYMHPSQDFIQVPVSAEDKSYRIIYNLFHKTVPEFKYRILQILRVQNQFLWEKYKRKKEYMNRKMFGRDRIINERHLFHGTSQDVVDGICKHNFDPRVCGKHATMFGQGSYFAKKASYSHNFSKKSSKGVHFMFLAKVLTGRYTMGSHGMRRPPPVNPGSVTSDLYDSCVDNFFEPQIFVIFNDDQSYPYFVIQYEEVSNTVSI

| SMILES | IC50 [nM] |
| --- | --- |
| O=C(CCOCCOc1cn[nH]c(=O)c1C(F)(F)F)N1CCN(c2ncc(C(F)(F)F)cn2)CC1 [Example 534, 5-[2-(3-Oxo-3-[4-[5-(trifluoromethyl)pyrimidin-2-yl]piperazin-1-yl]propoxy)ethoxy]-4-(trifluoromethyl)-2,3-dihydropyridazin-3-one] | < 100 |
| O=C(CCOCCOc1cn[nH]c(=O)c1C(F)(F)F)N1CCN(c2ccc(Cl)cn2)CC1 [Example 535, 5-(2-[3-[4-(5-Chloropyridin-2-yl)piperazin-1-yl]-3-oxopropoxy]ethoxy)-4-(trifluoromethyl)-2,3-dihydropyridazin-3-one] | < 100 |
| O=C(CCOCCOc1cn[nH]c(=O)c1C(F)(F)F)N1CCN(c2ccc(C(F)(F)F)cn2)CC1 [Example 536, 5-[2-(3-Oxo-3-[4-[5-(trifluoromethyl)pyridin-2-yl]piperazin-1-yl]propoxy)ethoxy]-4-(trifluoromethyl)-2,3-dihydroyridazin-3-one] | < 100 |
| N#Cc1ccc(N2CCN(C(=O)CCOC3Cc4ccccc4C3Oc3cn[nH]c(=O)c3C(F)(F)F)CC2)nc1 (centres unmarked) [Example 540, 6-(4-[3-[(1-[[6-Oxo-5-(trifluoromethyl)-1,6-dihydropyridazin-4-yl]oxy]-2,3-dihydro-1H-inden-2-yl)oxy]propanoyl]piperazin-1-yl)pyridine-3-carbonitrile] | 100 to 1000 |
| N#Cc1ccc(N2CCN(C(=O)CCO[C@H]3CC[C@H]3Nc3cn[nH]c(=O)c3C(F)(F)F)CC2)nc1 [Example 541, 6-(4-[3-[(1S,2R)-2-[[6-Oxo-5-(trifluoromethyl)-1,6-dihydropyridazin-4-yl]amino]cyclobutoxy]propanoyl]piperazin-1-yl)pyridine-3-carbonitrile] | < 100 |
| CN(C)CC(COCCC(=O)N1CCN(c2ccc(C#N)cn2)CC1)Oc1cn[nH]c(=O)c1C(F)(F)F (centres unmarked) [Example 542, 6-(4-[3-[3-(Dimethylamino)-2-[[6-oxo-5-(trifluoromethyl)-1,6-dihydropyridazin-4-yl]oxy]propoxy]propanoyl]piperazin-1-yl)pyridine-3-carbonitrile] | < 100 |
| C[C@H](COCCC(=O)N1CCN(c2ncc(Cl)cn2)CC1)Oc1cn[nH]c(=O)c1C(F)(F)F [Example 543 Isomer D, (R)-5-(1-(3-(4-(5-chloropyrimidin-2-yl)piperazin-1-yl)-3-oxopropoxy)propan-2-yloxy)-4-(trifluoromethyl)pyridazin-3(2H)-one] | 100 to 1000 |
| O=C(CCOCCOc1cn[nH]c(=O)c1Br)N1CCN(c2ncc(Cl)cn2)CC1 [Example 547, 4-Bromo-5-(2-[3-[4-(5-chloropyrimidin-2-yl)piperazin-1-yl]-3-oxopropoxy]ethoxy)-2,3-dihydropyridazin-3-one] | < 100 |
| O=C(CCOCCOc1cn[nH]c(=O)c1Br)N1CCN(c2ncc(C(F)(F)F)cn2)CC1 [Example 548, 4-Bromo-5-[2-(3-oxo-3-[4-[5-(trifluoromethyl)pyrimidin-2-yl]piperazin-1-yl]propoxy)ethoxy]-2,3-dihydropyridazin-3-one] | < 100 |
| Cc1c(OCCOCCC(=O)N2CCN(c3ncc(Cl)cn3)CC2)cn[nH]c1=O [Example 549, 5-(2-[3-[4-(5-Chloropyrimidin-2-yl)piperazin-1-yl]-3-oxopropoxy]ethoxy)-4-methyl-2,3-dihydropyridazin-3-one] | < 100 |
| Cc1c(OCCOCCC(=O)N2CCN(c3ncc(C(F)(F)F)cn3)CC2)cn[nH]c1=O [Example 550, 4-Methyl-5-[2-(3-oxo-3-[4-[5-(trifluoromethyl)pyrimidin-2-yl]piperazin-1-yl]propoxy)ethoxy]-2,3-dihydropyridazin-3-one] | < 100 |
| Cc1c(OCCOCCC(=O)N2CCN(c3ccc(C#N)cn3)CC2)cn[nH]c1=O [Example 551, 6-[4-(3-[2-[(5-Methyl-6-oxo-1,6-dihydropyridazin-4-yl)oxy]ethoxy]propanoyl)piperazin-1-yl]pyridine-3-carbonitrile] | < 100 |
| N#Cc1c(OCCOCCC(=O)N2CCN(c3ncc(Cl)cn3)CC2)cn[nH]c1=O [Example 552, 5-(2-[3-[4-(5-Chloropyrimidin-2-yl)piperazin-1-yl]-3-oxopropoxy]ethoxy)-3-oxo-2,3-dihydropyridazine-4-carbonitrile] | < 100 |
| N#Cc1c(OCCOCCC(=O)N2CCN(c3ncc(C(F)(F)F)cn3)CC2)cn[nH]c1=O [Example 553, 3-Oxo-5-[2-(3-oxo-3-[4-[5-(trifluoromethyl)pyrimidin-2-yl]piperazin-1-yl]propoxy)ethoxy]-2,3-dihydropyridazine-4-carbonitrile] | < 100 |
| N#Cc1ccc(N2CCN(C(=O)CCOCCOc3cn[nH]c(=O)c3C#N)CC2)nc1 [Example 554, 5-(2-[3-[4-(5-Cyanopyridin-2-yl)piperazin-1-yl]-3-oxopropoxy]ethoxy)-3-oxo-2,3-dihydropyridazine-4-carbonitrile] | < 100 |
| N#Cc1ccc(N2CCN(C(=O)CCOCCOc3cn[nH]c(=O)c3Br)CC2)nc1 [Example 555, 6-[4-(3-[2-[(5-Bromo-6-oxo-1,6-dihydropyridazin-4-yl)oxy]ethoxy]propanoyl)piperazin-1-yl]pyridine-3-carbonitrile] | < 100 |
| C[C@H](COCCC(=O)N1CCN(c2ncc(Cl)cn2)CC1)Nc1cn[nH]c(=O)c1C(F)(F)F [Example 556, 5-[[(2R)-1-[3-[4-(5-Chloropyrimidin-2-yl)piperazin-1-yl]-3-oxopropoxy]propan-2-yl]amino]-4-(trifluoromethyl)-2,3-dihydropyridazin-3-one] | 100 to 1000 |
| COC[C@H](COCCC(=O)N1CCN(c2ncc(Cl)cn2)CC1)Nc1cn[nH]c(=O)c1C(F)(F)F [Example 557, 5-[[(2R)-1-[3-[4-(5-Chloropyrimidin-2-yl)piperazin-1-yl]-3-oxopropoxy]-3-methoxypropan-2-yl]amino]-4-(trifluoromethyl)-2,3-dihydropyridazin-3-one] | < 100 |

Next, values leading:

| IC50 [nM] | SMILES |
| --- | --- |
| < 100 | COC[C@@H](COCCC(=O)N1CCN(c2ncc(Cl)cn2)CC1)Nc1cn[nH]c(=O)c1C(F)(F)F [Example 558, 5-[[(2S)-1-[3-[4-(5-Chloropyrimidin-2-yl)piperazin-1-yl]-3-oxopropoxy]-3-methoxypropan-2-yl]amino]-4-(trifluoromethyl)-2,3-dihydropyridazin-3-one] |
| < 100 | COC[C@@H](COCCC(=O)N1CCN(c2ncc(C(F)(F)F)cn2)CC1)Nc1cn[nH]c(=O)c1C(F)(F)F [Example 559, 5-[[(2S)-1-Methoxy-3-(3-oxo-3-[4-[5-(trifluoromethyl)pyrimidin-2-yl]piperazin-1-yl]propoxy)propan-2-yl]amino]-4-(trifluoromethyl)-2,3-dihydropyridazin-3-one] |
| < 100 | C[C@@H](COCCC(=O)N1CCN(c2ncc(Cl)cn2)CC1)Nc1cn[nH]c(=O)c1C(F)(F)F [Example 562, 5-[[(2S)-1-[3-[4-(5-Chloropyrimidin-2-yl)piperazin-1-yl]-3-oxopropoxy]propan-2-yl]amino]-4-(trifluoromethyl)-2,3-dihydropyridazin-3-one] |
| < 100 | C[C@@H](COCCC(=O)N1CCN(c2ccc(Cl)cn2)CC1)Nc1cn[nH]c(=O)c1C(F)(F)F [Example 563, 5-[[(2S)-1-[3-[4-(5-Chloropyridin-2-yl)piperazin-1-yl]-3-oxopropoxy]propan-2-yl]amino]-4-(trifluoromethyl)-2,3-dihydropyridazin-3-one] |
| < 100 | C[C@@H](COCCC(=O)N1CCN(c2ccc(C(F)(F)F)cn2)CC1)Nc1cn[nH]c(=O)c1C(F)(F)F [Example 564, 5-[[(2S)-1-(3-Oxo-3-[4-[5-(trifluoromethyl)pyridin-2-yl]piperazin-1-yl]propoxy)propan-2-yl]amino]-4-(trifluoromethyl)-2,3-dihydropyridazin-3-one] |
| < 100 | O=C(C[C@H]1CC[C@@H](CNc2cn[nH]c(=O)c2C(F)(F)F)O1)N1CCN(c2ncc(C(F)(F)F)cn2)CC1 [Example 568 Isomer C, 5-((((2S,5R)-5-(2-Oxo-2-(4-(5-(trifluoromethyl)pyrimidin-2-yl)piperazin-1-yl)ethyl)tetrahydrofuran-2-yl)methyl)amino)-4-(trifluoromethyl)pyridazin-3(2H)-one] |
| < 100 | O=C(C[C@@H]1CC[C@H](CNc2cn[nH]c(=O)c2C(F)(F)F)O1)N1CCN(c2ncc(C(F)(F)F)cn2)CC1 [Example 568 Isomer D, 5-((((2R,5S)-5-(2-Oxo-2-(4-(5-(trifluoromethyl)pyrimidin-2-yl)piperazin-1-yl)ethyl)tetrahydrofuran-2-yl)methyl)amino)-4-(trifluoromethyl)pyridazin-3(2H)-one] |
| 100 to 1000 | CC(CC(=O)N1CCN(c2ccc(C#N)cn2)CC1)OC[C@@H](C)Oc1cn[nH]c(=O)c1C(F)(F)F (stereo partly drawn) [Example 569, 6-(4-[3-[(2R)-2-[[6-Oxo-5-(trifluoromethyl)-1,6-dihydropyridazin-4-yl]oxy]propoxy]butanoyl]piperazin-1-yl)pyridine-3-carbonitrile] |
| < 100 | O=C(C[C@H]1CC[C@@H](COc2cn[nH]c(=O)c2C(F)(F)F)O1)N1CCN(c2ncc(C(F)(F)F)cn2)CC1 [Example 574 Isomer C, 5-(((2S,5R)-5-(2-Oxo-2-(4-(5-(trifluoromethyl)pyrimidin-2-yl)piperazin-1-yl)ethyl)-tetrahydrofuran-2-yl)methoxy)-4-(trifluoromethyl)pyridazin-3(2H)-one] |
| < 100 | O=C(C[C@@H]1CC[C@H](COc2cn[nH]c(=O)c2C(F)(F)F)O1)N1CCN(c2ncc(C(F)(F)F)cn2)CC1 [Example 574 Isomer D, 5-(((2R,5S)-5-(2-Oxo-2-(4-(5-(trifluoromethyl)pyrimidin-2-yl)piperazin-1-yl)ethyl)-tetrahydrofuran-2-yl)methoxy)-4-(trifluoromethyl)pyridazin-3(2H)-one] |
| 100 to 1000 | O=C(C[C@H]1CC[C@@H](COc2cn[nH]c(=O)c2Cl)O1)N1CCN(c2ncc(C(F)(F)F)cn2)CC1 [Example 575 Isomer C, 4-Chloro-5-(((2S,5R)-5-(2-oxo-2-(4-(5-(trifluoromethyl)pyrimidin-2-yl)piperazin-1-yl)ethyl)-tetrahydrofuran-2-yl)methoxy)pyridazin-3(2H)-one] |
